Data published in patent publication US11912703B2, “6-azaindole compounds” (BRISTOL-MYERS SQUIBB COMPANY, priority 2017, dated 2024).
Like-named read-outs stand apart in the source and are kept apart here.

Key:
[1] = biological target: human TLR7 (Homo sapiens (Human), UniProt Q9NYK1); test: TLR7 inhibition reporter assay (HEK-Blue SEAP); type: cell-based; details: HEK-Blue cells overexpressing human TLR7, gardiquimod 7.5 μM stimulation
[2] = biological target: human TLR8 (Homo sapiens (Human), UniProt Q9NR97); test: TLR8 inhibition reporter assay (HEK-Blue SEAP);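 also: SEAP driven by IFN-β minimal promoter with five NF-κB and AP-1 sites, compounds tested 0.05 nM to 50 µM, 22 h incubation, inhibition relative to agonist plus DMSO wells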
Sequence of human TLR8 (Q9NR97 27-1041): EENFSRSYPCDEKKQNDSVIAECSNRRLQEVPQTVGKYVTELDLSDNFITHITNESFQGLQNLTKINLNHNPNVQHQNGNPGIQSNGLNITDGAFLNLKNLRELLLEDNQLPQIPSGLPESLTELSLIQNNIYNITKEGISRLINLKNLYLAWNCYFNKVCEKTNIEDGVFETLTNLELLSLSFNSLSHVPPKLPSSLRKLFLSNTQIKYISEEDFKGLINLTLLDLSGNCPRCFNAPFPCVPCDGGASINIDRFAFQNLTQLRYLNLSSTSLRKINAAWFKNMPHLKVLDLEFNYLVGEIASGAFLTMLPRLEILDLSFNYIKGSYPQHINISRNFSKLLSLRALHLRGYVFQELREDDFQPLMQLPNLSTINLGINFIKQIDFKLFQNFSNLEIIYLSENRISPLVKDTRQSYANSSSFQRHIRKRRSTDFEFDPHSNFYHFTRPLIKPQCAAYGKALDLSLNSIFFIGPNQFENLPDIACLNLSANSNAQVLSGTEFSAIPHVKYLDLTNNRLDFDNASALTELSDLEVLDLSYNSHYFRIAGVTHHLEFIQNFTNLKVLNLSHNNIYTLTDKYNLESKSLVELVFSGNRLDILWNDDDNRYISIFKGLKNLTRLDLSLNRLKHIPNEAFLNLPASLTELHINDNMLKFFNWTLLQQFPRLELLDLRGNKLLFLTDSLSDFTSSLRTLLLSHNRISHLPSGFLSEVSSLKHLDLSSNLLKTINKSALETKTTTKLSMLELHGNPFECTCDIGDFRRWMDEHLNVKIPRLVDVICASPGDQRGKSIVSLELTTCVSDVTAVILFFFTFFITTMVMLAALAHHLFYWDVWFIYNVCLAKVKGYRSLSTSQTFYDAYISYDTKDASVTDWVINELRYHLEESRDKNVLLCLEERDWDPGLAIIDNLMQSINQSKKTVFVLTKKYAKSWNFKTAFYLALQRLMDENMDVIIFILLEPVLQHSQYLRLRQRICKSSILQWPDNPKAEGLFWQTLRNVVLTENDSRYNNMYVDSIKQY

[3] = biological target: human TLR9 (Homo sapiens (Human), UniProt Q9NR96); test: TLR9 inhibition reporter assay (HEK-Blue SEAP);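 also: SEAP driven by IFN-β minimal promoter carrying five NF-κB and AP-1 sites, 22 h at 37 °C, compounds 0.05 nM–50 µM, inhibition scaled between agonist-plus-DMSO and reference-inhibitor wells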
Sequence of human TLR9 (Q9NR96 26-1032): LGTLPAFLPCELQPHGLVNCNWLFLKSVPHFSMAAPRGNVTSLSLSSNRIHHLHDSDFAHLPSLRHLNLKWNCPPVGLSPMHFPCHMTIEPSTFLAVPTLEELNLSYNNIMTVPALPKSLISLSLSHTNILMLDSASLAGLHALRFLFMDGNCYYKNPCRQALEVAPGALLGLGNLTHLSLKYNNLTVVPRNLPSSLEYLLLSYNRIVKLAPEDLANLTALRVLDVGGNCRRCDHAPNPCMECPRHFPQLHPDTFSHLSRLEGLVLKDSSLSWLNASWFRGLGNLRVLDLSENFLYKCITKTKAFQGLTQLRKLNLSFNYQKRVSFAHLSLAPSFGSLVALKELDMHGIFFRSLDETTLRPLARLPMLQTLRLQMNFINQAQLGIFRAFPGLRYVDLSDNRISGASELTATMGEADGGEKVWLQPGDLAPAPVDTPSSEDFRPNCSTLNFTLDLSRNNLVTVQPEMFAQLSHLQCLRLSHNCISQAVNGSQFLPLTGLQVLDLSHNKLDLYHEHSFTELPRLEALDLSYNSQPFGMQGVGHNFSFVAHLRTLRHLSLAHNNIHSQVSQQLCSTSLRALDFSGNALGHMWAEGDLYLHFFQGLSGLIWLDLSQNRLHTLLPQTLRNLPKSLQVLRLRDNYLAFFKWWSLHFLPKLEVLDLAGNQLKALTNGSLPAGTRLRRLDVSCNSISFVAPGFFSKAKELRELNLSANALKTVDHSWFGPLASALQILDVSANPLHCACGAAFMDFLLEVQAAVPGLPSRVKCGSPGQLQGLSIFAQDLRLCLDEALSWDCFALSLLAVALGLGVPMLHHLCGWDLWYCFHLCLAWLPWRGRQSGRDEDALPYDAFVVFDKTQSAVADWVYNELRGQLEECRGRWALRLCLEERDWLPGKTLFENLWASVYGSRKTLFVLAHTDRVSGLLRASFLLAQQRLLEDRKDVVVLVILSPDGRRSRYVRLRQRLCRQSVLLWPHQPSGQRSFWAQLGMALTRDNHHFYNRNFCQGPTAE

[4] = read-out: TLR8 IC50; HEK-Blue cells overexpressing human TLR8; R848 15.9 μM stimulation; SEAP reporter
[5] = read-out: TLR9 IC50; HEK-Blue cells overexpressing human TLR9; ODN2006 5 nM stimulation; SEAP reporter
[6] = read-out: TLR8 IC50; HEK-Blue cells overexpressing human TLR8, R848 15.9 μM stimulation, SEAP reporter
[7] = read-out: TLR9 IC50; HEK-Blue cells overexpressing human TLR9, ODN2006 5 nM stimulation, SEAP reporter

Sequence of human TLR7 (Q9NYK1 27-1049): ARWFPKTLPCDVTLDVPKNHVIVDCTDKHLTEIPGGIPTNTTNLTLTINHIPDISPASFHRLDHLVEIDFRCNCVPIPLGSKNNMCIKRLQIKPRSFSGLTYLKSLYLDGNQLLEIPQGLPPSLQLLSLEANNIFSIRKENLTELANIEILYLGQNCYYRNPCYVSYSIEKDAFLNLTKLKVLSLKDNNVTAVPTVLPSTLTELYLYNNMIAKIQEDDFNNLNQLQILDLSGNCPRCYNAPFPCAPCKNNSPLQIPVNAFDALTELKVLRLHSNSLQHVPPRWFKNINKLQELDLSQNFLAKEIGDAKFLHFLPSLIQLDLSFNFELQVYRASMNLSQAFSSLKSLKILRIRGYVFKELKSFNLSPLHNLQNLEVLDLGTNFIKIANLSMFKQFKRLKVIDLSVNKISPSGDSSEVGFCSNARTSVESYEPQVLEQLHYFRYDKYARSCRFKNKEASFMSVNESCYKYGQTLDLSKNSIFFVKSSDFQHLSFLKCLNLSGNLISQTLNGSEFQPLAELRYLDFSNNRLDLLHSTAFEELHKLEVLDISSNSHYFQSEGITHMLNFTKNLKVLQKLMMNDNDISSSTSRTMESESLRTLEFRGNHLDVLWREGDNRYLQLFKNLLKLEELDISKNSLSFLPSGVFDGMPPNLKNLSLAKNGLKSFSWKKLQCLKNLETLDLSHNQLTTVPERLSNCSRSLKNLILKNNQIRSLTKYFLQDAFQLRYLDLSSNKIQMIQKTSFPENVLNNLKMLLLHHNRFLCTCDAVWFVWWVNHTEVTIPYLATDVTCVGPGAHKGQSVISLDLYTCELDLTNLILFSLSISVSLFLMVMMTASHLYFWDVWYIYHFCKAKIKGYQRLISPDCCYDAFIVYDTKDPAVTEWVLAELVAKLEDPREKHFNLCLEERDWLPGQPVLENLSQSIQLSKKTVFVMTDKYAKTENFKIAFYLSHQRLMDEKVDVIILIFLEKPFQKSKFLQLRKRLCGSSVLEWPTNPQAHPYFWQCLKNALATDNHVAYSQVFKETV

IC50 [1]	IC50 [2, 4]	IC50 [3, 5]	IC50 [2, 6]	IC50 [3, 7]	Structure (SMILES)
8.5 nM	3.1 nM	47900 nM	–	–	CNC(=O)CN1CCN(c2ncc3[nH]c(-c4cn5ncnc5c(C)c4C)c(C(C)C)c3c2F)[C@H](C)C1 [Example 465]
19 nM	–	–	174 nM	10300 nM	COc1cc(-c2[nH]c3cnc(N4CC5(C4)CN(C4CCOCC4)C5)c(F)c3c2C(C)C)cn2ncnc12 [Example 370]
1.6 nM	–	–	0.59 nM	9180 nM	COc1cc(-c2[nH]c3cnc(N4CCC(NC5COC5)CC4)c(F)c3c2C(C)C)cn2ncnc12 [Example 42, 1-(4-fluoro-3-isopropyl-2-(8-methoxy-[1,2,4]triazolo[1,5-a]pyridin-6-yl)-1H-pyrrolo[2,3-c]pyridin-5-yl)-N-(oxetan-3-yl)piperidin-4-amine]
6.4 nM	–	–	5.2 nM	3360 nM	COc1cc(-c2[nH]c3cnc(N4CCN(CC(=O)N(C)C)CC4)c(C)c3c2C(C)C)cn2ncnc12 [Example 252]
14 nM	–	–	75 nM	459 nM	COc1cc(-c2[nH]c3cnc(C4CCN(CC(=O)N(C)C)CC4)cc3c2C(C)C)cn2ncnc12 [Example 298]
8.5 nM	–	–	114 nM	920 nM	COc1cc(-c2[nH]c3cnc(C4CCNCC4)cc3c2C(C)C)cn2ncnc12 [Example 312]
5 nM	–	–	1.2 nM	502 nM	COc1cc(-c2[nH]c3cnc(C4CCC(NCC(C)(C)C)C4)cc3c2C(C)C)cn2ncnc12 (stereo not drawn) [Example 60]
2.5 nM	–	–	7.4 nM	1080 nM	Cc1cc(-c2[nH]c3cnc(C4CCN(C(C)C)CC4)c(F)c3c2C(C)C)cc(C)n1 [Example 97]
24 nM	–	–	13 nM	8840 nM	Cc1c(-c2[nH]c3cnc(N4CC5(CNC5)C4)c(F)c3c2C(C)C)cn2ncnc2c1C [Example 392, 6-(4-fluoro-3-isopropyl-5-(2,6-diazaspiro[3.3]heptan-2-yl)-1H-pyrrolo[2,3-c]pyridin-2-yl)-7,8-dimethyl-[1,2,4]triazolo[1,5-a]pyridine]
2.7 nM	–	–	0.81 nM	1890 nM	COc1cc(-c2[nH]c3cnc(N4CCN(C5CCN(C(C)C)CC5)CC4)c(F)c3c2C(C)C)cn2ncnc12 [Example 388]
1.4 nM	–	–	4.7 nM	1080 nM	Cc1c(-c2[nH]c3cnc(C4CCC(NCC(F)F)CC4)cc3c2C(C)C)cn2ncnc2c1C (stereo not drawn) [Example 350]
4.7 nM	–	–	14 nM	1200 nM	CNCC(=O)N1CCN(c2ncc3[nH]c(-c4cc(OC)c5ncnn5c4)c(C(C)C)c3c2C)CC1 [Example 98]
1.8 nM	–	–	3.4 nM	2450 nM	COCCN1CCC(c2ncc3[nH]c(-c4cc(C)c5ncnn5c4)c(C(C)C)c3c2F)CC1 [Example 183]
3.9 nM	–	–	4 nM	777 nM	Cc1c(-c2[nH]c3cnc(C4CCC(NCC(C)(C)C)CC4)cc3c2C(C)C)cn2ncnc2c1C (stereo not drawn) [Example 337]
3.5 nM	–	–	1.6 nM	13500 nM	Cc1c(-c2[nH]c3cnc(C4CCN(CC(N)=O)CC4)c(F)c3c2C(C)C)cn2ncnc2c1C [Example 15]
1.1 nM	–	–	5.5 nM	255 nM	COc1cc(-c2[nH]c3cnc(C4CCC(NC5COC5)CC4)cc3c2C(C)C)cn2ncnc12 (stereo not drawn) [Example 330]
34 nM	–	–	32 nM	548 nM	Cc1c(-c2[nH]c3cnc(C4CCC(NCC(C)(C)O)CC4)c(C)c3c2C(C)C)cn2ncnc2c1C (stereo not drawn) [Example 92]
0.76 nM	–	–	2.6 nM	1790 nM	COc1cc(-c2[nH]c3cnc(C4CCN(C(C)C)CC4)c(F)c3c2C(C)C)cn2ncnc12 [Example 18]
4.9 nM	0.49 nM	15500 nM	–	–	Cc1c(-c2[nH]c3cnc(N4CCN(C(=O)CN(C)C)C[C@H]4C)c(F)c3c2C(C)C)cn2ncnc2c1C [Example 470]
2.5 nM	–	–	7.1 nM	7490 nM	COc1cc(-c2[nH]c3cnc(N4CCN(CC5CC5)C[C@H]4C)c(F)c3c2C(C)C)cn2ncnc12 [Example 442]
9.7 nM	–	–	39 nM	279 nM	COc1cc(-c2[nH]c3cnc(C4CCN(CC(=O)N(C)C)CC4)c(C)c3c2C(C)C)cn2ncnc12 [Example 24]
7.7 nM	–	–	56 nM	154 nM	COc1cc(-c2[nH]c3cnc(C4CCC(N5CCC5)CC4)cc3c2C(C)C)cn2ncnc12 (stereo not drawn) [Example 332]
1.6 nM	–	–	4.2 nM	333 nM	COc1cc(-c2[nH]c3cnc(C4CCC(NCC(C)(C)F)CC4)c(C)c3c2C(C)C)cn2ncnc12 (stereo not drawn) [Example 271]
6.2 nM	–	–	7.8 nM	1550 nM	Cc1cc(-c2[nH]c3cnc(C4CCN(C(=O)CN(C)C)CC4)c(F)c3c2C(C)C)cc(C)n1 [Example 185]
4.9 nM	–	–	19 nM	682 nM	Cc1c(-c2[nH]c3cnc(C4CCC(N5CC6(COC6)C5)CC4)c(C)c3c2C(C)C)cn2ncnc2c1C (stereo not drawn) [Example 57]

IC50 [1]	IC50 [2, 4]	IC50 [3, 5]	IC50 [2, 6]	IC50 [3, 7]	Structure (SMILES)
> 3120 nM	–	–	> 3120 nM	17900 nM	Cc1cc(-c2[nH]c3cnc(N4CCN(CC(=O)N(C)C)CC4)cc3c2C(C)C)cn2ncnc12 [Example 297]
1.6 nM	0.54 nM	13800 nM	–	–	Cc1c(-c2[nH]c3cnc(N4CCN(CC5CC5)C[C@H]4C)c(F)c3c2C(C)C)cn2ncnc2c1C [Example 459]
7.1 nM	–	–	17 nM	771 nM	Cc1c(-c2[nH]c3cnc(C4CCC(NC5CCOC5)CC4)cc3c2C(C)C)cn2ncnc2c1C (stereo not drawn) [Example 327]
8.7 nM	–	–	4 nM	549 nM	CCN(C)C1CCC(c2cc3c(C(C)C)c(-c4cc(OC)c5ncnn5c4)[nH]c3cn2)C1 (stereo not drawn) [Example 177]
12 nM	–	–	16 nM	276 nM	COc1cc(-c2[nH]c3cnc(C4CCC(N5CC6(COC6)C5)C4)cc3c2C(C)C)cn2ncnc12 (stereo not drawn) [Example 208]
7.7 nM	–	–	1.2 nM	114 nM	COc1cc(-c2[nH]c3cnc(C4CCC(NCC5(C)COC5)C4)cc3c2C(C)C)cn2ncnc12 (stereo not drawn) [Example 276]
2.6 nM	–	–	1.1 nM	924 nM	Cc1c(-c2[nH]c3cnc(C4CCC(NC(C)C)CC4)c(F)c3c2C(C)C)cn2ncnc2c1C (stereo not drawn) [Example 85]
7.9 nM	–	–	25 nM	159 nM	COc1cc(-c2[nH]c3cnc(C4CCC(NC5COC5)CC4)cc3c2C(C)C)cn2ncnc12 (stereo not drawn) [Example 308]
12 nM	–	–	3.7 nM	14400 nM	COc1cc(-c2[nH]c3cnc(N4CCN(CC(N)=O)CC4)cc3c2C(C)C)cn2ncnc12 [Example 319]
4.7 nM	–	–	26 nM	1290 nM	COc1cc(-c2[nH]c3cnc(C4CCN(C5COC5)CC4)c(C)c3c2C(C)C)cn2ncnc12 [Example 16]
6.5 nM	–	–	6.8 nM	2780 nM	Cc1c(-c2[nH]c3cnc(C4CCNCC4)c(F)c3c2C(C)C)cn2ncnc2c1C [Example 13]
4.3 nM	–	–	4.7 nM	1700 nM	Cc1c(-c2[nH]c3cnc(C4CCN(C(=O)CN(C)C)CC4)c(F)c3c2C(C)C)cn2ncnc2c1C [Example 29]
9 nM	5.2 nM	38800 nM	–	–	Cc1c(-c2[nH]c3cnc(N4CCN(CCS(C)(=O)=O)C[C@H]4C)c(F)c3c2C(C)C)cn2ncnc2c1C [Example 463]
1.5 nM	–	–	0.55 nM	3010 nM	COc1cc(-c2[nH]c3cnc(N4CCC(N5CC6(COC6)C5)CC4)c(F)c3c2C(C)C)cn2ncnc12 [Example 254]
0.37 nM	–	–	0.43 nM	1130 nM	COc1cc(-c2[nH]c3cnc(N4CCC(N(C)C(C)C)CC4)c(C)c3c2C(C)C)cn2ncnc12 [Example 86]
11 nM	–	–	14 nM	401 nM	COc1cc(-c2[nH]c3cnc(C4CCC(NC5COC5)CC4)c(C)c3c2C(C)C)cn2ncnc12 (stereo not drawn) [Example 242]
7.5 nM	–	–	16 nM	2070 nM	CNCC(=O)N1CCC(c2ncc3[nH]c(-c4cc(C)nc(C)c4)c(C(C)C)c3c2F)CC1 [Example 214]
1.6 nM	–	–	0.21 nM	5160 nM	COc1cc(-c2[nH]c3cnc(N4CCC(NC5(C)COC5)CC4)c(F)c3c2C(C)C)cn2ncnc12 [Example 188]
4.4 nM	–	–	6.4 nM	205 nM	COc1cc(-c2[nH]c3cnc(C4CCC(NCC5(C)COC5)CC4)c(C)c3c2C(C)C)cn2ncnc12 (stereo not drawn) [Example 269]
4 nM	–	–	9.3 nM	6550 nM	COc1cc(-c2[nH]c3cnc(N4CCN(C(C)C)C[C@H]4C)c(F)c3c2C(C)C)cn2ncnc12 [Example 443]
43 nM	50 nM	> 50000 nM	–	–	Cc1c(-c2[nH]c3cnc(N4CCN(CC(F)(F)F)C[C@H]4C)c(F)c3c2C(C)C)cn2ncnc2c1C [Example 468]
0.79 nM	–	–	0.58 nM	1100 nM	COc1cc(-c2[nH]c3cnc(N4CCC(N5CCOCC5)CC4)c(C)c3c2C(C)C)cn2ncnc12 [Example 278]
3.8 nM	–	–	39 nM	16200 nM	COc1cc(-c2[nH]c3cnc(N4CCN(CC(F)(F)F)CC4)c(F)c3c2C(C)C)cn2ncnc12 [Example 366]
2.9 nM	–	–	25 nM	356 nM	Cc1cc(-c2[nH]c3cnc(C4CCN(CC(=O)N(C)C)CC4)cc3c2C(C)C)cn2ncnc12 [Example 299]
